Each structure is given as a SMILES string. A value given as a limit tells only on which side of the number the result lay.

In general, melting point refers to the temperature, or range, at which the solid turns liquid. `COc1cc2c(cc1OC)CC(NC(=O)C1CCC(=O)N1)CC2` (configuration not stated) gave a melting point of 195 to 196 °C.
For `CCOc1ccc(C(=O)NCc2ccc3c(c2)C(=O)N(C2(C)CCC(=O)NC2=O)C3=O)cc1` (configuration not stated) the value was 163 to 165 °C; for `COc1ccc(-n2c(Cl)ccc2-c2ccc(S(N)(=O)=O)cc2)cc1`, 119 to 120 °C.
For `O=C1OCc2c1cccc2[N+](=O)[O-]` the value was 134 to 136 °C; for `CC(C)c1ccccc1N1/C(=N\N=C/c2ccc(-c3ncn(-c4ccc(OC(F)(F)F)cc4)n3)cc2)SCC1(O)c1ccccc1C(F)(F)F` (configuration not stated), 115 to 118 °C.
For `CC1(C(=O)n2ccnc2)CC1` the value was 34 to 35 °C; for `Cc1cn(C(C)(C)C(=O)N(C)C)nc1-c1ccccc1Cl`, 175 to 176 °C; for `CON(C)S(=O)(=O)c1ccccc1S(=O)(=O)NC(=O)n1nc(OCC(F)(F)F)n(C)c1=O`, 183 °C.
In the case of `Fc1ccc2occ(N3CCN(C4CCN(c5ccc(F)c6cccnc56)CC4)CC3)c2c1`, the melting point lay within 187 to 189 °C.
For `Cc1cccc(C)c1C(=O)c1sc(Nc2ccc(N3CCOCC3)cc2)nc1N` the value was 221 to 223 °C.
With `CCc1c(-c2ccc(O)cc2)c2cc(COCCCN3CCCCC3)c3cccc1n32` the figure was 176 to 178 °C.
For `CCCc1c(OCCCCCC(=O)NCCCCc2cncnc2)ccc(C(C)=O)c1O` the value was 87 to 89 °C; for `O=C(O)CCN1CCN(c2ccc(F)cc2)CC1`, 178 to 180 °C; for `CC(NC(=O)c1cccnc1Oc1cccnc1)c1ccc(Cl)s1` (single isomer, unassigned; (+)), 83 to 85 °C.
The molecule `CCc1noc(-c2cn(-c3ccccn3)cn2)n1` displayed a melting point of 162 to 163 °C.
For `CCc1nc(NC(C)C)c([N+](=O)[O-])c(SC2CCCCC2)n1` the value was 69 to 71 °C; for `CC1CCN(c2ccc([N+](=O)[O-])cc2C(=O)c2ccc(Cl)c(Cl)c2)CC1`, 116 °C; for `O=C(O)CCCCCCCn1c(-c2ccccc2)nc(-c2ccccc2)c1-c1ccccc1`, 162 °C.
With `COC(=O)c1ccccc1C(=O)n1nc(O)ccc1=O` the figure was 144 to 145 °C; with `C[C@@](O)(C(=O)N1CCC(C(=O)c2ccc(F)cc2)CC1)C(F)(F)F`, 78 to 79 °C.
With `Cc1nn(-c2ccccn2)c2ncc(C(=O)N(C)c3ccccc3)c(OCc3ccccc3)c12` the figure was 92 to 93 °C.
Consider `CC(=O)OC1CSC(Oc2cc(C)c(-c3cccnc3)c(C)c2)C(OC(C)=O)C1OC(C)=O` (configuration not stated), for which the melting point was in the range of 75 to 80 °C.
For `O=C(Cl)N1CC(Oc2ccccc2Cl)C1` the value was 80 to 82 °C; for `Fc1cccc(F)c1-c1nccc(-c2ccc(Br)cc2)n1`, 130 to 131 °C; for `COc1cc(Oc2cccc(C(F)(F)F)c2)nc(C(=O)NC=C(Cl)Cl)c1`, 123 to 125 °C.
For `Cc1ccc(Oc2ccc(C3=CC=CN4CCS(=O)(=O)N=C34)cc2)cc1` the value was 248 to 249 °C; for `Cc1ccccc1-c1ccc(C(=O)N2Cc3ccc(C(=O)CCc4cccnc4)n3Cc3ccccc32)cc1`, 135 to 136 °C.
For `N#Cc1ccc(-c2cccc3cncn23)cc1` the value was 117 to 118 °C; for `CCOC(=O)C1=Cc2cc(C=O)ccc2OC1C(F)(F)F` (configuration not stated), 84.3 to 86.2 °C.
The molecule `CC(=O)Nc1cccc2c1CCNC2=O` yielded a melting point of 244 to 246 °C.
For `CCOC(=O)c1ccc2c(N)cccc2c1` the value was 94 to 95 °C; for `CN(C)CCCOc1ccc2ccc(NC(=O)c3c(F)cccc3F)nc2n1`, 190 °C.
With `COc1cc(C(=O)c2ccc(Cl)cc2)cc([N+](=O)[O-])c1O` the figure was 128 to 131 °C; with `CC(C)=CCCC(C)CCS(=O)c1nc2ccccc2[nH]1` (single isomer, unassigned; (+)), 122 to 124 °C.
For `CC(=O)Nc1nc(CCc2ccc(NC(=O)OC(C)(C)C)cc2)c(C(=O)NCc2ccccc2)s1` the value was 184 to 185 °C; for `Cn1c(=O)[nH]c(=O)n(-c2ccc(Sc3nc4ccc(Cl)cc4s3)cc2)c1=O`, 232 to 233 °C; for `COc1c(Br)cc(N)cc1C(C)=O`, 93 to 94 °C.
In turn, `CCOCc1nc2c(N)nc3ccc(O)cc3c2n1CCCCNC(=O)Nc1ccccc1` returned a melting point of 218 to 221 °C.
For `Cc1ccc(N(CCN2CCC(C(=O)c3ccc(F)cc3)CC2)C(=O)c2cccc(N)c2)cc1` the value was 173 to 175 °C; for `CC1CCC(Nc2ccccc2)c2nccc(=O)n21` (configuration not stated), 160 to 162 °C.
For `N#Cc1cccn2cc(-c3ccc(C(=O)NCCC(=O)O)cc3)nc12`, the melting point lay within 212 to 215 °C.
For `CCOCC1=C(C(=O)OCC)C(c2cccc([N+](=O)[O-])c2)C(C(=O)OCC)=C(C)N1` (configuration not stated) the value was 120 to 122 °C; for `Cc1cc(-c2cnn3c(C(F)(F)F)cc(-c4ccc(Cl)cc4)nc23)ccn1`, 220 °C.
For `Cn1c(C(F)(F)F)cc(=O)n(-c2c(F)cc(Cl)c3nc(C(C)(C)C)oc23)c1=O` the value was 68 to 70 °C.
As to `CN(C)CCC1=Cc2ccccc2N(C)c2ccc(Cl)cc21`, the melting point was 82 °C.
`CC(C)(C)NC(=O)N1CC(Oc2cccc(C(F)(F)F)c2)C1` came in with a melting point of 105 to 107 °C.
As to `COC(=O)c1c[nH]cc1-c1cccc(Cl)c1Cl`, the melting point lay in the range of 200 to 201 °C.
With `CCOC(c1cccc2cccnc12)n1c(NC2CCN(C(CN)C(C)C)CC2)nc2ccccc21` (configuration not stated) the figure was 202 °C; with `CCCCCc1ccc(C2c3c(C)c(N)c(C)c(C)c3OC2(C)C)cc1` (configuration not stated), 67 to 68 °C.
For `CCOC(=O)/C=C/c1ccc(OCCC(C)(C)O)cc1Oc1ncc(C(F)(F)F)cc1Cl` the value was 63.5 to 66 °C; for `CC1CC(=O)N(CCCCN2C(=O)c3ccccc3C2=O)C1=O` (configuration not stated), 79 to 80 °C; for `CCC1(C)CC(S(=O)(=O)Cc2c(F)cccc2F)=NO1` (configuration not stated), 64 to 65 °C.
With `CCOC(=O)Cc1nn(C/C=C/c2cccc(C(F)(F)F)c2F)c(=O)c2ccccc12` the figure was 104 to 106 °C.
Molecule `CC(=O)OC1NC(=O)C1C(C)O[Si](C)(C)C(C)(C)C(C)C` (configuration not stated) had a melting point of 80 to 81 °C.
For `CCC1=C(C#N)C(c2ccccc2Cl)c2c[nH]nc2N1` (configuration not stated) the value was over 300 °C; for `C#CC1(OCc2cc(F)ccc2F)CCN(C(C)=O)CC1`, 90 to 93 °C.
The molecule `CCCNc1nc(-c2ccccc2)c(-c2ccc(=O)n(C(C)C)n2)s1` showed a melting point of 165 to 166 °C.
For `O=C(CO)OC(=O)CCS` the value was 143 to 144 °C; for `CC=C(C(=O)OC(c1ccccc1)c1ccccc1)N1C(=O)[C@@H]2N=C(Cc3ccccc3)O[C@@H]21`, 104 to 106 °C.
As to `COC(=O)c1ccc(CC(=O)Nc2cccc(/C=C/c3nc(C4CCC4)cs3)c2)cc1`, the melting point lay in the range of 163 to 164 °C.
The molecule `CC[C@H](COCC#Cc1ccccc1)n1cnc2c(N)nc3ccccc3c21` had a melting point of 63 to 67 °C.
For `CCCc1nn(-c2ccc(C(F)(F)F)cn2)cc1CCCCOc1ccc(CC(=O)O)cc1` the value was 121 to 122 °C; for `Cc1ccccc1C(=O)Nc1ccc(C(=O)N2Cc3cccn3Cc3sccc32)cc1`, 162 to 188 °C; for `COC(=O)CCCNC(=O)N1CCN(c2cc3c(cc2F)c(=O)c(C(=O)O)cn3C2CC2)CC1`, 198 to 200 °C.
For `CC(=O)OC12Oc3cc(C(C)C)ccc3C1(OC(C)=O)C(=O)c1c(N)cccc12` (configuration not stated) the value was 201 to 203 °C.
With `CC(=O)NC[C@@H]1CCCc2cc(Sc3ccccc3)cc(F)c21`, the melting point fell in the range of 94.6 to 95.9 °C.
With `CC(=O)NCc1cncn1C1c2ccccc2CCC1(C)C` (configuration not stated) the figure was 166 °C; with `COc1c(OCCn2c([N+](=O)[O-])cnc2C)cnc(CNc2nc(C)nc(C)c2Cl)c1C`, 182 to 184 °C; with `Cc1ccc(S(=O)(=O)OCC2CCc3ccc4[nH]c(C(F)(F)F)nc4c3O2)cc1` (configuration not stated), 160 °C.
With `N#Cc1ccc(C=C2CCCN(C(=O)c3ccc(Cl)cc3)C2)cc1` the figure was over 210 °C; with `CC[C@H](C)[C@H](NC(=O)Nc1ccccc1C(F)(F)F)C(=O)N[C@H](CO)Cc1c[nH]c2ccccc12`, 232 to 234 °C.
For `O=C1C=c2c(c3c4ccccc4oc3c3[nH]c4ccccc4c23)=N1` the value was over 300 °C; for `COC(=O)c1cncc(-c2ccc(OC)cc2)c1`, 99 to 101 °C.
In turn, `COc1cc(C#N)ccc1Cc1cn(C)c2ccc([N+](=O)[O-])cc12` gave a melting point of 200 to 201 °C.
For `COC(=O)C1CC(c2ccncc2)CCC1=O` (configuration not stated) the value was 82 to 83 °C.
`CNC1=Nc2ccsc2C(c2ccccc2)=NC1` gave a melting point of 223 to 227 °C.
For `O=C1c2c(Cl)cccc2-c2cc(O)cc3cccc1c23` the value was 308 to 312 °C; for `N#Cc1cc(-c2ccccc2Cl)c[nH]c1=O`, 252 to 254 °C; for `Cn1cc2c(n1)-c1c(Cc3ccccc3)sc(C(N)=O)c1CC2`, 212 to 213 °C.
With `N#Cc1cc(C(=O)CBr)ccc1N` the figure was 162 to 165 °C.
With `CCCn1c(=O)n([C@@H]2CCN(CCCCN3C(=O)c4cc(Cl)ccc4S3(=O)=O)[C@@H](C#N)C2)c2ccccc21` (relative stereo) the figure was 159 to 160 °C.
For the molecule `CCNC(=O)N1CCc2cc(S(=O)(=O)n3cc(-c4ccccc4)[nH]c3=O)ccc21`, the melting point lay in the range of 234 to 235 °C.
`O=C(SCCCC(=O)N1CCC[C@H]1C(=O)O)c1ccccc1`: the melting point lay within 159 to 161 °C.
For `CC(=O)OC1CSC(Oc2ccc(-c3ccc(C#N)nc3)nc2)C(OC(C)=O)C1OC(C)=O` (configuration not stated) the value was 247 °C; for `Cn1c(=O)c(=NO)nc(-c2ccccc2)c2ccccc21`, 239 to 242 °C; for `CC1=CC(O)C(OC(=O)c2ccc(Cl)cc2)C(C)(C)CC1=O` (configuration not stated), 114 to 116 °C.
With `CC[C@H](COC)n1cc(Cl)nc(N2CCc3cc(OC)cc(Br)c32)c1=O` the figure was 100 to 102 °C.

Source of the values: a melting point compilation (Tetko et al.; mined from patent text by program, amines drawn as free bases though some values may be those of a salt).
